According to article PMC8698768, “The Effects of Sorbus aucuparia L. Fruit Extracts on Oxidative/Nitrative Modifications of Human Fibrinogen, Impact on Enzymatic Properties of Thrombin, and Hyaluronidase Activity In Vitro” (Antioxidants, 2021):

Experiments:
[1] = molecular target: T1, hyaluronidase from bovine testes type I-S (Bos taurus, UniProt F1MTV1); test: turbidimetric hyaluronidase inhibition assay; type: biochemical; conditions: substrate hyaluronic acid 0.03%, with bovine serum albumin 0.1%; per mL of the enzyme solution; read-out: IC50 (μg/mL) ^a
T1 construct: gene SPAM1; native commercial preparation from bovine testes (Sigma-Aldrich, type I-S)
T1 sequence (F1MTV1 36-553): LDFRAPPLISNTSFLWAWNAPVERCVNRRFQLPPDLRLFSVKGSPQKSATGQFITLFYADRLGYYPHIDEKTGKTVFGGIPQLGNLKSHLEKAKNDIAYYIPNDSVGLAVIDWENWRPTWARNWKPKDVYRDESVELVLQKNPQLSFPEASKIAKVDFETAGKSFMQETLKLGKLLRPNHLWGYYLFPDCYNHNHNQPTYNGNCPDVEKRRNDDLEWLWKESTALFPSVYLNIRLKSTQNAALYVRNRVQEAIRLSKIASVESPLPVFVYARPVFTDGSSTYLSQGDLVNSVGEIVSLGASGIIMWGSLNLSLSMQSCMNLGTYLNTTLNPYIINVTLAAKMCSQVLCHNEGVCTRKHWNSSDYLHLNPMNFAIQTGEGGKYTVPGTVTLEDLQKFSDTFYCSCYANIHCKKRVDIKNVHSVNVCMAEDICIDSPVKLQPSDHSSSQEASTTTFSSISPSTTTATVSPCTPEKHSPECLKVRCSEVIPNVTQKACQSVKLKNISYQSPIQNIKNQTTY
From the text: turbidimetric hyaluronidase inhibition assay on hyaluronidase from bovine testes type I-S

[2] = molecular target: T2, thrombin (Bos taurus, UniProt P00735); test: chromogenic amidolytic assay (S-2238), […] nm; type: biochemical; conditions: read-out: % inhibition at 50 μg/mL
T2 construct: gene F2; Biomed Lublin thrombin is usually of bovine origin, human (P00734) not excluded

Q: How did the IC50 [1] turn out when `O=C(/C=C/c1ccc(O)c(O)c1)O[C@@H]1C[C@](O)(C(=O)O)C[C@@H](O)[C@H]1O` [CHA, chlorogenic acid] was run?
A: > 339 µM

Q: Which IC50 [1] does the source give for `O=c1c(O[C@@H]2O[C@H](CO)[C@@H](O)[C@H](O)[C@H]2O)c(-c2ccc(O)c(O)c2)oc2cc(O)cc(O)c12` [IQ, isoquercitrin] here?
A: > 431 µM

Q: Which results are given for `Oc1cc(O)c2c(c1)O[C@H](c1ccc(O)c(O)c1)[C@H](O)[C@H]2c1c(O)cc(O)c2c1O[C@H](c1ccc(O)c(O)c1)[C@H](O)C2` [PB2, procyanidin B2]?
A: inhibition at 50 µg/mL [2]: 27%; IC50 [1]: > 207 µM

Q: How did the IC50 [1] turn out when `O=c1c(O[C@@H]2O[C@H](CO)[C@@H](O)[C@H](O)[C@H]2O[C@@H]2O[C@H](CO)[C@@H](O)[C@H](O)[C@H]2O)c(-c2ccc(O)c(O)c2)oc2cc(O)cc(O)c12` [SQ, quercetin 3-O-β-sophoroside] was run?
A: > 319 µM
